Reference: patent US20220251036A1, “DIFLUOROHALOALLYLAMINE SULFONE DERIVATIVE INHIBITORS OF LYSYL OXIDASES, METHODS OF PREPARATION, AND USES THEREOF” (PHARMAXIS LTD., priority 2019, published 2022)
Read-outs that look alike come from different tables or passages of the source.

Assays:
Assay type in all cases: biochemical
Bovine LOX = target: T1, Bovine LOX (Bos taurus, UniProt P33072); assay: LOX inhibition, Amplex Red oxidation assay
T1 sequence (P33072 170-418): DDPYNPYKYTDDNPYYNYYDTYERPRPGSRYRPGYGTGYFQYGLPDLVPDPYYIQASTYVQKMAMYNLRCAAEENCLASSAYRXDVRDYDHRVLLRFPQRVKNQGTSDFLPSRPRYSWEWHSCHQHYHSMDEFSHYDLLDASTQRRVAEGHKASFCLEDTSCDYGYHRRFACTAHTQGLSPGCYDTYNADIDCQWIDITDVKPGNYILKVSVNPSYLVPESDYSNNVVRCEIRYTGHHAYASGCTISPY
Procedure: (§1) LOX and LOXL protein family members can be acquired as recombinant active proteins from commercial sources, or extracted from animal tissues like bovine aorta, tendons, pig skin; or prepared from cell cultures. […] The assay was developed using either 384 or 96 well format. Briefly, in a standard black, clear bottom 384 well plate assay 25 μL of a dilution of any of the isoenzymes and orthologues in 1.2 M urea, 50 mM sodium borate buffer (pH 8.2) were added into each well in the presence of 1 μM mofegiline and 0.5 mM pargyline (to inhibit SSAO and MAO-B and MAO-A, respectively; not necessary if the enzyme is from a recombinant or purified form). Test compounds were dissolved in DMSO and tested in a Concentration Response Curve (CRC) with 11 data points, typically in the micromolar or nanomolar range after incubation with the enzyme for 30 min at 37° C. 25 μL of a reaction mixture containing twice the KM concentration of putrescine (Sigma Aldrich, e.g. 20 mM for LOX and LOXL1 or 10 mM for LOXL2 and 4 mM for LOXL3 and LOXL4), 120 μM Amplex Red (Sigma Aldrich) and 1.5 U/mL horseradish peroxidase (Sigma Aldrich) prepared in 1.2 M urea, 50 mM sodium borate buffer (pH 8.2) were then added to the corresponding wells. The above volumes were doubled in the case of 96 wells plate. The fluorescence (RFU) was read every 2.5 min for 30 min at […] 37° C., excitation 565 nm and emission 590 (Optima; BMG labtech). The slope of the kinetics for each well was calculated using MARS data analysis software (BMG labtech) and this value was used to deduce the IC50 value (Dotmatics). The ability of the inventive compounds to inhibit the amine oxidase activity of LOX and other family members is shown in Table 4.

Human recombinant LOXL2 = target: T2, Human recombinant LOXL2 (Homo sapiens, UniProt Q9Y4K0); assay: LOXL2 inhibition, Amplex Red oxidation assay
T2 sequence (Q9Y4K0 26-774): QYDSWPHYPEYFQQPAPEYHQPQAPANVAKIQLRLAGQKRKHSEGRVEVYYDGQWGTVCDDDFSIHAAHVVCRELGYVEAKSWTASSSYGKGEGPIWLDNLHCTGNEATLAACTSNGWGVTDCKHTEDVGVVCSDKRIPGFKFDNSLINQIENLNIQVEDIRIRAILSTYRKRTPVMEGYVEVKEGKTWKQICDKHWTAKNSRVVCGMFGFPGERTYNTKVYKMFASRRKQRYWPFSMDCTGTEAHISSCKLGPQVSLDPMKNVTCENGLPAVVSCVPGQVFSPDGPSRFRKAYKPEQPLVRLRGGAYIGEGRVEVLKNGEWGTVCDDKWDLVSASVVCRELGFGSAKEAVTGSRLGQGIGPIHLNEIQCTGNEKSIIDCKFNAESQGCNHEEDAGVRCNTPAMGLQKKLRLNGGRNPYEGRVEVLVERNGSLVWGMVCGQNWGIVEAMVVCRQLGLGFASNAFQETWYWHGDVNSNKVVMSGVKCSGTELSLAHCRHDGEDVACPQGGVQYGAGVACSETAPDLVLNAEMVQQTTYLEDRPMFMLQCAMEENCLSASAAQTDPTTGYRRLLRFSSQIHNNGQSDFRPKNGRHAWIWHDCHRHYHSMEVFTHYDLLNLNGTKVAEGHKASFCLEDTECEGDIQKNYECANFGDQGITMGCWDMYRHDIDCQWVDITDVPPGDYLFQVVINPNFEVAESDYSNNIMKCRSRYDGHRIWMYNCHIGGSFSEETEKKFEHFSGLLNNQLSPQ
Procedure: as §1

Human recombinant LOXL4 = target: T3, Human recombinant LOXL4 (Homo sapiens, UniProt Q96JB6); assay: LOXL4 inhibition, Amplex Red oxidation assay
T3 sequence (Q96JB6 25-756): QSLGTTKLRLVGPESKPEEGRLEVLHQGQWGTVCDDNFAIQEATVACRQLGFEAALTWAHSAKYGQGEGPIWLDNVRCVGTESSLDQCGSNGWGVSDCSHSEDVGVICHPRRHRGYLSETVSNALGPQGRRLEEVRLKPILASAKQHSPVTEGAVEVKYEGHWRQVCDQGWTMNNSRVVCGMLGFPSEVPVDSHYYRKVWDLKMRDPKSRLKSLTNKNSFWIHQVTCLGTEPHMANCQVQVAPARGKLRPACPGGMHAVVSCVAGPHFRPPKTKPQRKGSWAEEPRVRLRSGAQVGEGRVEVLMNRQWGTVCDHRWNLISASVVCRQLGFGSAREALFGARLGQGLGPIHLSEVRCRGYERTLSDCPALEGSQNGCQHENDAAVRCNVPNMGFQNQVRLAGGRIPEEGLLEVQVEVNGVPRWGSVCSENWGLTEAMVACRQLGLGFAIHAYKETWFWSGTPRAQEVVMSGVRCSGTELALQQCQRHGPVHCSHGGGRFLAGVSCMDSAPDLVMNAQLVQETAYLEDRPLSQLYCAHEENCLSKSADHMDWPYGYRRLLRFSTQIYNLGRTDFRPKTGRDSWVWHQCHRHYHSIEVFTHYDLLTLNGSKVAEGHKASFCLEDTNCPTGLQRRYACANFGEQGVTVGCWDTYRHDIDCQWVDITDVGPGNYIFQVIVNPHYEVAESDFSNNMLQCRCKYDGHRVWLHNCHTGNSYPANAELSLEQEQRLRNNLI
Procedure: as §1

[1] = incubation with enzyme 30 min at 37° C, read-out: Bovine LOX Activity IC50
[2] = incubation with enzyme 30 min at 37° C, read-out: Human recombinant LOXL2 Activity IC50
[3] = incubation with enzyme 30 min at 37° C, read-out: Human recombinant LOXL4 Activity IC50

| Compound | IC50 (Bovine LOX; [1]) [nM] | IC50 (Human recombinant LOXL2; [2]) [nM] | IC50 (Human recombinant LOXL4; [3]) [nM] | IC50 (Bovine LOX) [nM] | IC50 (Human recombinant LOXL2) [nM] | IC50 (Human recombinant LOXL4) [nM] |
| --- | --- | --- | --- | --- | --- | --- |
| NC/C=C(\F)C(F)(F)S(=O)(=O)C1CCCC1 [Compound 19, (Z)-4-(cyclopentylsulfony1)-3,4,4-trifluorobut-2-en-1-amine] | 2500 | 500 | 500 | – | – | – |
| CS(=O)(=O)c1cccc(CS(=O)(=O)C(F)(F)/C(F)=C/CN)c1 [Compound 17, (Z)-3,4,4-trifluoro-4-((3-(methylsulfonyl)benzyl)sulfonyl)but-2-en-1-amine] | 3500 | 400 | 200 | – | – | – |
| Cc1ccc(S(=O)(=O)C(F)(F)/C(F)=C/CN)cc1 [Compound 6, (Z)-3,4,4-trifluoro-4-tosylbut-2-en-1-amine] | 3500 | 500 | 300 | – | – | – |
| NC/C=C(\F)C(F)(F)S(=O)(=O)c1cccc2cccnc12 [Compound 2, (Z)-3,4,4-trifluoro-4-(quinolin-8-ylsulfonyl)but-2-en-1-amine] | 8000 | 1800 | 600 | – | – | – |
| NC/C=C(\F)C(F)(F)[S+]([O-])c1ccccc1 (centres unmarked) [Compound 9, (Z)-3,4,4-trifluoro-4-(phenylsulfinyl)but-2-en-1-amine] | 6500 | 1400 | 1100 | – | – | – |
| CS(=O)(=O)c1ccc(COc2ccccc2S(=O)(=O)C(F)(F)/C(F)=C/CN)cc1 [Compound 10, (Z)-3,4,4-trifluoro-4-((2-((4-(methylsulfonyl)benzyl)oxy)phenyl)sulfonyl) but-2-en-1-amine] | 2700 | 100 | 100 | – | – | – |
| NC/C=C(\F)C(F)(F)S(=O)(=O)Cc1ccccc1 [Compound 8, (Z)-4-(benzylsulfony1)-3,4,4-trifluorobut-2-en-1-amine] | 2500 | 300 | 100 | – | – | – |
| N#CCCN [BAPN, β-aminopropionitrile, reference compound] | 2200 | 400 | 300 | – | – | – |
| NC/C=C(\F)C(F)(F)S(=O)(=O)c1cccs1 [Compound 14, (Z)-3,4,4-trifluoro-4-(thiophen-2-ylsulfonyl)but-2-en-1-amine] | 4500 | 300 | 200 | – | – | – |
| NC/C=C(\F)C(F)(F)S(=O)(=O)c1ccccc1 [Compound 1, (Z)-3,4,4-trifluoro-4-(phenylsulfonyl)but-2-en-1-amine] | – | – | – | 3700 | 400 | 300 |
| CNc1ccccc1S(=O)(=O)C(F)(F)/C(F)=C/CN [Compound 4, (Z)-2-((4-amino-1,1,2-trifluorobut-2-en-yl)sulfony1)-N-methylaniline] | 4300 | 1000 | 700 | – | – | – |
| Cc1ccccc1S(=O)(=O)C(F)(F)/C(F)=C/CN [Compound 5, (Z)-3,4,4-trifluoro-4-(o-tolylsulfonyl)but-2-en-1-amine] | 3800 | 500 | – | – | – | – |
| COc1cccc(S(=O)(=O)C(F)(F)/C(F)=C/CN)c1 [Compound 12, (Z)-3,4,4-trifluoro-4-((3-methoxyphenyl)sulfonyl)but-2-en-1-amine] | 5100 | 600 | 300 | – | – | – |
